Consider 13 compounds from patent US9233982B2, “Spiro tetrahydro—benzothiophen derivatives useful for the treatment neurodegenerative diseases” (Ares Trading S.A., priority 2012, dated 2016).

Bounds are passed on as bounds.

For assay [1], the target named is T1, BACE-1 (Homo sapiens, UniProt P56817). Kind of assay: LanthaScreen BACE1 biochemical assay (TR-FRET). (In general: Time-resolved FRET reads energy transfer from a long-lived donor to a nearby acceptor.)
Description: Biochemical Assay to Assess Compounds for Inhibition of BACE-1
The LanthaScreen™ BACE1 assay kit from Invitrogen (Catalogue number PV4748) was used as the primary assay in the screening cascade.
Briefly, the test compound was incubated with the enzyme and substrate for 1 hour at room temperature in a reaction volume of 15 μl and then 5 nM terbium labelled anti-biotin antibody was added to stop the reaction and the solution incubated for a further 1 hour at room temperature. The microplate was read on an Envision plate reader fitted with a photometric 340 nm excitation filter and the amount of substrate that had been cleaved was represented by the TR-FRET ratio, calculated by dividing the Fluorescein emission signal (520 nm) by the Terbium emission signal (495 nm).
The target of assay [2] is T1, BACE-1. The experiment in a line: HTRF cell based assay, Aβ1-40 peptide secreted by recombinant HEK293 cells. On the set-up: endogenous in cells; host or cells: recombinant HEK293 cells engineered to over-produce APP. The note with it: Aβ1-40 secretion, recombinant HEK293 cells producing APP, overnight treatment; read-out: Cellular assay EC50 Ranges. Here is the method:
The cell based assay used to support the program utilized HTRF assay reagents from Cisbio (Catalogue number 62B40PEB) to quantify the amount of Aβ1-40 peptide secreted by recombinant HEK293 cells. The cells were engineered to produce high quantities of APP, the precursor for Aβ1-40 peptide, under hygromycin selection pressure. Briefly, cells were plated into 384-well microplates and allowed to settle for 2 hours prior to compound addition. Following overnight treatment with compound, the media containing secreted peptide was transferred into a low volume assay plate for quantification with HTRF immunoassay reagents. Adhering to the manufacturers protocol for quantification, a TR-FRET signal is obtained in the presence of the Aβ1-40 peptide following addition of a cryptate conjugated antibody and an XL665 conjugated antibody, each raised to a different epitope of the Aβ1-40 peptide. A low FRET signal is obtained when cells are treated with compounds that inhibit APP cleavage and peptide secretion.

T1 sequence (P56817 46-501): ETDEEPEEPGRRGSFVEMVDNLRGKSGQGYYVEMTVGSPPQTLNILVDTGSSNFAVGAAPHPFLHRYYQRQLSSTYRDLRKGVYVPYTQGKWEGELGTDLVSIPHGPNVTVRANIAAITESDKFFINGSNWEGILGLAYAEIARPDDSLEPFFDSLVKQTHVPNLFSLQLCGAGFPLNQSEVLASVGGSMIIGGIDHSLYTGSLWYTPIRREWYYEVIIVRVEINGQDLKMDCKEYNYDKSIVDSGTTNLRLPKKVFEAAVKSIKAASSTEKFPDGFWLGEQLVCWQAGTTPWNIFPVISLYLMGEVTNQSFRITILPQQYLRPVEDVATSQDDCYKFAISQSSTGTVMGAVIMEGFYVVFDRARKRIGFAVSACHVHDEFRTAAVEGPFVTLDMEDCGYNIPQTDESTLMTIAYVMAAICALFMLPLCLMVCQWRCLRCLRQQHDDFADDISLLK

`CC1(C)CCc2sc(-c3cccc(C(F)(F)F)c3)cc2C12CCSC(N)=N2` (centres unmarked) [Example 46, 5,5-dimethyl-2-(3-(trifluoromethyl)phenyl)-5′,6,6′,7-tetrahydro-5H-spiro[benzo[b]thiophene-4,4′-[1,3]thiazin]-2′-amine]: the IC50 (commonly the concentration that gives 50% inhibition) in assay [1] fell in the range of 5 to 65 µM. Moreover, the EC50 (as a rule, the concentration giving half of the maximal effect) in assay [2] fell in the range of 5 to 50 µM.

In the case of `CN1C(=O)C2(CCCc3sc(-c4cccc(C#N)c4)cc32)N=C1N` (centres unmarked) [Example 49, 3-(2′-amino-1′-methyl-5′-oxo-1′,5′,6,7-tetrahydro-5H-spiro[benzo[b]thiophene-4,4′-imidazole]-2-yl)benzonitrile], the IC50 in assay [1] was < 1 µM. The EC50 in assay [2] is ≤ 1 µM.

In turn, `CN1C(=O)C2(CCCc3sc(-c4cccnc4)cc32)N=C1N` (centres unmarked) [Example 52] had an IC50 in assay [1] of 5 to 65 µM. Further, in assay [2], the EC50 is 1 to 5 µM.

`CN1C(=O)C2(CCCc3sc(-c4cccc(OC(F)(F)F)c4)cc32)N=C1N` (centres unmarked) [Example 53] came in with an IC50 in assay [1] of 1 to 5 µM. Also, in assay [2], the EC50 fell in the range of 5 to 50 µM.

Turning to `CN1C(=O)C2(CCCc3sc(-c4cccc(C(F)(F)F)c4)cc32)N=C1N` (centres unmarked) [Example 54], the IC50 in assay [1] was < 1 µM. The EC50 in assay [2] lay in the range of 1 to 5 µM.

Consider `COc1cc(C#N)cc(-c2cc3c(s2)CCCC32N=C(N)N(C)C2=O)c1` (centres unmarked) [Example 55], for which, in assay [1], the IC50 lay in the range of 1 to 5 µM. Also, the EC50 in assay [2] lay within 1 to 5 µM.

In assay [1], `CN1C(=O)C2(CCCc3sc(-c4cccc(Cl)c4)cc32)N=C1N` (centres unmarked) [Example 56] gave an IC50 of 1 to 5 µM. The EC50 in assay [2] lay within 1 to 5 µM.

Take `N#Cc1cccc(-c2cc3c(s2)CCCC32N=C(N)N(Cc3ccccc3)C2=O)c1` (centres unmarked) [Example 57, 3-(2′-amino-1′-benzyl-5′-oxo-1′,5′,6,7-tetrahydro-5H-spiro[benzo[b]thiophene-4,4′-imidazole]-2-yl)benzonitrile]: the IC50 in assay [1] is < 1 µM. For the same compound, the EC50 in assay [2] lay within 5 to 50 µM.

`CN1OC2(CCCc3sc(-c4cccc(C(F)(F)F)c4)cc32)N=C1N` (centres unmarked) [Example 58, 2′-methyl-2-(3-(trifluoromethyl)phenyl)-6,7-dihydro-2′H,5H-spiro[benzo[b]thiophene-4,5′-[1,2,4]oxadiazol]-3′-amine] displayed an IC50 in assay [1] of 1 to 5 µM. Further, in assay [2], the EC50 fell in the range of 5 to 50 µM.

As for `NC1=NC2(CCCc3sc(-c4cccc(C(F)(F)F)c4)cc32)ON1Cc1ccccc1` (centres unmarked) [Example 59], in assay [1], the IC50 lay in the range of 1 to 5 µM. Moreover, the EC50 in assay [2] lay in the range of 5 to 50 µM.

As to `N#Cc1cccc(-c2cc3c(s2)CCCC32N=C(N)N(Cc3ccccc3)O2)c1` (centres unmarked) [Example 60], the IC50 in assay [1] is < 1 µM. In assay [2], the EC50 fell in the range of 5 to 50 µM.

In assay [1], `NC1=NC2(CCCc3cc(-c4cccc(-c5ccccc5)c4)sc32)CCS1` (centres unmarked) [Example 61] came in with an IC50 of 1 to 5 µM. Moreover, the EC50 in assay [2] was 5 to 50 µM.

Regarding `N#Cc1cccc(-c2cc3c(s2)C2(CCC3)CCSC(N)=N2)c1` (centres unmarked) [Example 62], the IC50 in assay [1] lay within 5 to 65 µM. In addition, in assay [2], the EC50 fell in the range of 5 to 50 µM.
